Reference: patent US9422293B2 (priority 2006, dated 2016)
Counter-ions that a name gives are not always drawn.

Molecular target: rat TRPV1 (Rattus norvegicus (Rat), UniProt O35433)
Conditions: read-out: Rat IC50

Chain of rat TRPV1 (O35433 whole entry): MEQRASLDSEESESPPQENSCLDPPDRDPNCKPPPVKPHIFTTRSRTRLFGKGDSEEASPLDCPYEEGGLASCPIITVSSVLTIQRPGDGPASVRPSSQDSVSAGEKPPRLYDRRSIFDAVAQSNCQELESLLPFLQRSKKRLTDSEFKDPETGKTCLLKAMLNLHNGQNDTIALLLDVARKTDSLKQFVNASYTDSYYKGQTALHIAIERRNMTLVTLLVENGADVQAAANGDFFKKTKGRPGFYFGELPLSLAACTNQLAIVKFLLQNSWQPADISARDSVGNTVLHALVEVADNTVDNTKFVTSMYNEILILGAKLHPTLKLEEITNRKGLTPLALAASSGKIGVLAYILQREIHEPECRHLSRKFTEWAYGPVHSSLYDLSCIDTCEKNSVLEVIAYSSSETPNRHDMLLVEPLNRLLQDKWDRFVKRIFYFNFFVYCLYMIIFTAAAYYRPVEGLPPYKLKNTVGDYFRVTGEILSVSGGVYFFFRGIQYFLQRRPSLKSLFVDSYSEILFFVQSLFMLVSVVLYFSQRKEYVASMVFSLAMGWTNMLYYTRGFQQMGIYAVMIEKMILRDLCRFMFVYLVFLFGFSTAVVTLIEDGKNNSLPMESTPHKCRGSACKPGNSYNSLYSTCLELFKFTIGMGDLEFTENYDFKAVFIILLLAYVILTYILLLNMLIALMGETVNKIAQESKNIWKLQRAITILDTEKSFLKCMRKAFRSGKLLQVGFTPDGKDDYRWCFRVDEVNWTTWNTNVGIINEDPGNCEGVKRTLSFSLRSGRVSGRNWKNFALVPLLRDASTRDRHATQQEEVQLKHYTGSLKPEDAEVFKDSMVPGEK

Compound	IC50 [nM]
CC(C)N(C)c1nc2c(c(Nc3ccc(C(F)(F)F)nc3)n1)CCN(c1ncccc1C(F)(F)F)CC2 [Example 266, N^2-Methyl-N^2-(1-methylethyl)-7-[3-(trifluoromethyl)pyridin-2-yl]-N^4-[6-(trifluoromethyl)pyridin-3-yl]-6,7,8,9-tetrahydro-5H-pyrimido[4,5-d]azepine-2,4-diamine]	450
CC(C)c1nc2c(c(Nc3ccc(C(F)(F)F)cc3)n1)CCN(c1ccccc1N)CC2 [Example 84, [7-(2-Amino-phenyl)-2-isopropyl-6,7,8,9-tetrahydro-5H-pyrimido[4,5-d]azepin-4-yl]-(4-trifluoromethyl-phenyl)-amine]	> 20000
CN(C)c1nc2c(c(Nc3ccc(Cl)c(Cl)c3)n1)CCN(c1ncccc1C(F)(F)F)CC2 [Example 63B, N^4-(3,4-Dichloro-phenyl)-N^2,N^2-dimethyl-7-(3-trifluoromethyl-pyridin-2-yl)-6,7,8,9-tetrahydro-5H-pyrimido[4,5-d]azepine-2,4-diamine trifluoroacetic acid salt]	2500
Fc1cc(C(F)(F)F)ccc1Nc1nc(N2CCCCC2)nc2c1CCN(c1ncccc1C(F)(F)F)CC2 [Example 166]	380
CN1CCC(C)(C)c2ccc(Nc3nc(SCc4ccccc4)nc4c3CCN(c3ncccc3C(F)(F)F)CC4)cc21 [Example 370, 2-[(Phenylmethyl)sulfanyl]-7-[3-(trifluoromethyl)pyridin-2-yl]-N-(1,4,4-trimethyl-1,2,3,4-tetrahydroquinolin-7-yl)-6,7,8,9-tetrahydro-5H-pyrimido[4,5-d]azepin-4-amine]	2610
CC(C)(C)c1ccc(Nc2ncnc3c2CCN(c2nncc4ccccc24)CC3)cc1 [Example 37, (4-tert-Butyl-phenyl)-(7-phthalazin-1-yl-6,7,8,9-tetrahydro-5H-pyrimido-[4,5-d]azepin-4-yl)-amine]	150
COc1ccccc1CCNc1nc(C(C)C)nc2c1CCN(c1ncccc1C(F)(F)F)CC2 [Example 126, 2-(1-Methylethyl)-N-{2-[2-(methyloxy)phenyl]ethyl}-7-[3-(trifluoromethyl)pyridin-2-yl]-6,7,8,9-tetrahydro-5H-pyrimido[4,5-d]azepin-4-amine]	1190
FC(F)(F)c1ccc(Nc2nc(N3CCCCCC3)nc3c2CCN(c2ncccc2C(F)(F)F)CC3)nc1 [Example 194, 2-Azepan-1-yl-7-[3-(trifluoromethyl)pyridin-2-yl]-N-[5-(trifluoromethyl)pyridin-2-yl]-6,7,8,9-tetrahydro-5H-pyrimido[4,5-d]azepin-4-amine]	70
FC1(F)CCN(c2nc3c(c(Nc4ccc(C(F)(F)F)cc4)n2)CCN(c2ncccc2C(F)(F)F)CC3)CC1 [Example 242, 2-(4,4-Difluoropiperidin-1-yl)-N-[4-(trifluoromethyl)phenyl]-7-[3-(trifluoromethyl)pyridin-2-yl]-6,7,8,9-tetrahydro-5H-pyrimido[4,5-d]azepin-4-amine]	90
CC(Oc1nc2c(c(Nc3ccc(C(F)(F)F)cc3)n1)CCN(c1ncccc1C(F)(F)F)CC2)C1CCCCC1 (stereo not drawn) [Example 332, 2-[(1-Cyclohexylethyl)oxy]l-N-[4-(trifluoromethyl)phenyl]-7-[3-(trifluoromethyl)pyridin-2-yl]-6,7,8,9-tetrahydro-5H-pyrimido[4,5-d]azepin-4-amine]	2040
COCCN(C)c1nc2c(c(Nc3ccc(C(C)(C)C)cc3)n1)CCN(c1ncccc1C(F)(F)F)CC2 [Example 257, N^4-[4-(1,1-Dimethylethyl)phenyl]-N^2-methyl-N^2-[2-(methyloxy)ethyl]-7-[3-(trifluoromethyl)pyridin-2-yl]-6,7,8,9-tetrahydro-5H-pyrimido[4,5-d]azepine-2,4-diamine]	20
CC(C)c1nc2c(c(Nc3ccc(Cl)c(Cl)c3)n1)CCN(c1ncccc1C(F)(F)F)CC2 [Example 109, (3,4-Dichloro-phenyl)-[2-isopropyl-7-(3-trifluoromethyl-pyridin-2-yl)-6,7,8,9-tetrahydro-5H-pyrimido[4,5-d]azepin-4-yl]-amine]	580
CS(=O)(=O)c1cccnc1N1CCc2ncnc(Nc3ccc(C(F)(F)F)cc3)c2CC1 [Example 283, 7-[3-(Methylsulfonyl)pyridin-2-yl]-N-[4-(trifluoromethyl)phenyl]-6,7,8,9-tetrahydro-5H-pyrimido[4,5-d]azepin-4-amine]	8520
FC(F)(F)c1ccc(Nc2nc(-c3ccncc3)nc3c2CCN(c2ncccc2C(F)(F)F)CC3)cc1 [Example 167, 2-Pyridin-4-yl-N-[4-(trifluoromethyl)phenyl]-7-[3-(trifluoromethyl)pyridin-2-yl]-6,7,8,9-tetrahydro-5H-pyrimido[4,5-d]azepin-4-amine trifluoroacetic acid salt]	370
FC(F)(F)c1ccc(Nc2nc(N3CCC3)nc3c2CCN(c2ncccc2C(F)(F)F)CC3)cc1Cl [Example 231, 2-Azetidin-1-yl-N-[3-chloro-4-(trifluoromethyl)phenyl]-7-[3-(trifluoromethyl)pyridin-2-yl]-6,7,8,9-tetrahydro-5H-pyrimido[4,5-d]azepin-4-amine trifluoroacetic acid salt]	100
CC(C)c1nc2c(c(Nc3ccc(C(F)(F)F)cc3)n1)CCN(c1ccccc1[N+](=O)[O-])CC2 [Example 85, [2-Isopropyl-7-(2-nitro-phenyl)-6,7,8,9-tetrahydro-5H-pyrimido[4,5-d]azepin-4-yl]-(4-trifluoromethyl-phenyl)-amine]	> 6700
CSc1nc2c(c(Nc3ccc(C(F)(F)F)nc3)n1)CCN(c1ncccc1C(F)(F)F)CC2 [Example 75B, [2-Methylsulfanyl-7-(3-trifluoromethyl-pyridin-2-yl)-6,7,8,9-tetrahydro-5H-pyrimido[4,5-d]azepin-4-yl]-(6-trifluoromethyl-pyridin-3-yl)-amine trifluoroacetic acid salt]	40
CN1CCCc2ccc(Nc3nc(OC4CCCCC4)nc4c3CCN(c3ncccc3C(F)(F)F)CC4)cc21 [Example 328, 2-(Cyclohexyloxy)-N-(1-methyl-1,2,3,4-tetrahydroquinolin-7-yl)-7-[3-(trifluoromethyl)pyridin-2-yl]-6,7,8,9-tetrahydro-5H-pyrimido[4,5-d]azepin-4-amine]	250
CC(Oc1nc2c(c(Nc3ccc(S(=O)(=O)C(F)(F)F)cc3)n1)CCN(c1ncccc1C(F)(F)F)CC2)C1CC1 (centres unmarked) [Example 317, 2-[(1-Cyclopropylethyl)oxy]-7-[3-(trifluoromethyl)pyridin-2-yl]-N-{4-[(trifluoromethyl)sulfonyl]phenyl}-6,7,8,9-tetrahydro-5H-pyrimido[4,5-d]azepin-4-amine]	610
Fc1cccnc1N1CCc2ncnc(Nc3ccc(C(F)(F)F)cc3)c2CC1 [Example 295, 7-(3-Fluoropyridin-2-yl)-N-[4-(trifluoromethyl)phenyl]-6,7,8,9-tetrahydro-5H-pyrimido[4,5-d]azepin-4-amine]	10400
O=S(=O)(c1ccc(Nc2nc(OC3CCOCC3)nc3c2CCN(c2ncccc2C(F)(F)F)CC3)cc1)C(F)(F)F [Example 322, 2-(Tetrahydro-2H-pyran-4-yloxy)-7-[3-(trifluoromethyl)pyridin-2-yl]-N-{4-[(trifluoromethyl)sulfonyl]phenyl}-6,7,8,9-tetrahydro-5H-pyrimido[4,5-d]azepin-4-amine]	10
CC(C)Oc1nc2c(c(Nc3ccc(C(F)(F)F)cc3)n1)CCN(c1ncccc1C(F)(F)F)CC2 [Example 341, 2-[(1-Methylethyl)oxy]l-N-[4-(trifluoromethyl)phenyl]-7-[3-(trifluoromethyl)pyridin-2-yl]-6,7,8,9-tetrahydro-5H-pyrimido[4,5-d]azepin-4-amine trifluoroacetic acid salt]	150
CC(C)c1nc2c(c(NCCc3ccccc3Br)n1)CCN(c1ncccc1C(F)(F)F)CC2 [Example 119, N-[2-(2-Bromophenyl)ethyl]-2-(1-methylethyl)-7-[3-(trifluoromethyl)pyridin-2-yl]-6,7,8,9-tetrahydro-5H-pyrimido[4,5-d]azepin-4-amine]	1220
O=S(=O)(NC1CC1)c1cccnc1N1CCc2nc(N3CCCCC3)nc(Nc3ccc(C(F)(F)F)cc3)c2CC1 [Example 299, N-Cyclopropyl-2-(2-piperidin-1-yl-4-{[4-(trifluoromethyl)phenyl]amino}-5,6,8,9-tetrahydro-7H-pyrimido[4,5-d]azepin-7-yl)pyridine-3-sulfonamide]	3000
FC(F)(F)c1cccnc1N1CCc2nc(C3CC3)nc(Nc3ccc(Cl)cc3)c2CC1 [Example 4, (4-Chloro-phenyl)-[2-cyclopropyl-7-(3-trifluoromethyl-pyridin-2-yl)-6,7,8,9-tetrahydro-5H-pyrimido[4,5-d]azepin-4-yl]-amine]	500
CC(C)Sc1nc2c(c(Nc3ccc4c(c3)N(C)CCC4(C)C)n1)CCN(c1ncccc1C(F)(F)F)CC2 [Example 372, 2-[(1-Methylethyl)sulfanyl]-7-[3-(trifluoromethyl)pyridin-2-yl]-N-(1,4,4-trimethyl-1,2,3,4-tetrahydroquinolin-7-yl)-6,7,8,9-tetrahydro-5H-pyrimido[4,5-d]azepin-4-amine]	330
FC(F)(F)c1ccc(Nc2nc(-c3cccnc3)nc3c2CCN(c2ncccc2C(F)(F)F)CC3)cc1 [Example 176, 2-Pyridin-3-yl-N-[4-(trifluoromethyl)phenyl]-7-[3-(trifluoromethyl)pyridin-2-yl]-6,7,8,9-tetrahydro-5H-pyrimido[4,5-d]azepin-4-amine trifluoroacetic acid salt]	810

Same assay, conditions: read-out: Rat IC50; hydrochloride salt

Compound	IC50 [nM]
FC(F)(F)c1ccc(Nc2nc(N3CCCCC3)nc3c2CCN(c2ncccc2C(F)(F)F)CC3)cc1 [Example 39A, [2-Piperidin-1-yl-7-(3-trifluoromethyl-pyridin-2-yl)-6,7,8,9-tetrahydro-5H-pyrimido[4,5-d]azepin-4-yl]-(4-trifluoromethyl-phenyl)-amine hydrochloride salt]	23
CC(C)(C)c1ccc(Nc2ncnc3c2CCN(c2ncccc2C(F)(F)F)CC3)cc1 [Example 1A, (4-tert-Butyl-phenyl)-[7-(3-trifluoromethyl-pyridin-2-yl)-6,7,8,9-tetrahydro-5H-pyrimido[4,5-d]azepin-4-yl]-amine hydrochloride salt]	49
